Data as given in the supplement of paper PMC12463676, “Small-molecule dissolution of stress granules by redox modulation benefits ALS models” (Nature Chemical Biology, 2025).

Tests used:
lipoamide = compound: NC(=O)CCCCC1CCSS1 [lipoamide]; assay: thermal stability z-score vs DMSO; higher = more thermally stabilized by treatment; details: HeLa, lipoamide concentration 100 µM
Description: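 Cellular thermal proteome profiling in HeLa cells. Cells were treated with 100 µM lipoamide for 1 h, with or without 1 mM arsenate for a further 1 h, then heated to ten temperatures (37-66.3 °C), and soluble protein was quantified by TMT mass spectrometry relative to 0.1% DMSO controls. The thermal stability score (sum of log2 fold changes minus the abundance score) was transformed to a z-score; mean of n = 3 experiments.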

potassium arsenate = compound: O=[As]([O-])(O)O.[K+] [potassium arsenate]; assay: as above; details: HeLa; arsenate concentration 1 mM
Description: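 Cellular thermal proteome profiling in HeLa cells treated with 1 mM arsenate for 1 h (DMSO pretreatment), heated to ten temperatures (37-66.3 °C). Soluble protein was quantified by TMT mass spectrometry relative to DMSO controls; the thermal stability score was transformed to a z-score; mean of n = 3 experiments.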

[1] = arsenate co-treatment: 1 mM arsenate 1 h
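Further: each temperature applied for 3 min, abundance score taken as mean log2 fold change at the two lowest temperatures, z-score obtained by mean subtraction and division by SD.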

Chain of UniProt Q9NVX2 (Q9NVX2 whole entry): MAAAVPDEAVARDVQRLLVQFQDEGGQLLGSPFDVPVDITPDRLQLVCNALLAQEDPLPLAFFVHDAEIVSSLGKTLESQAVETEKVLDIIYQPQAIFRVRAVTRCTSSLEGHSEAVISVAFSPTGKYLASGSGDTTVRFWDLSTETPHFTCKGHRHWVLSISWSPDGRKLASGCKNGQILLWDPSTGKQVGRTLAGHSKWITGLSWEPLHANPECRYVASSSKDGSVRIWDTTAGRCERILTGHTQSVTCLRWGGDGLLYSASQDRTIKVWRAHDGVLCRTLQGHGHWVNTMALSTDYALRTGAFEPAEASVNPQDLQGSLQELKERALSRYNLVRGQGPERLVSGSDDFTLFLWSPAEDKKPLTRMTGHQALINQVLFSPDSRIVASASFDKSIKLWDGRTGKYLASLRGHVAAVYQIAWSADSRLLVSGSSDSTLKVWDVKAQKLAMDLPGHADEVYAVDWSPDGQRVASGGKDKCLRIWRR
Chain of UniProt Q8IZ07 (Q8IZ07 whole entry): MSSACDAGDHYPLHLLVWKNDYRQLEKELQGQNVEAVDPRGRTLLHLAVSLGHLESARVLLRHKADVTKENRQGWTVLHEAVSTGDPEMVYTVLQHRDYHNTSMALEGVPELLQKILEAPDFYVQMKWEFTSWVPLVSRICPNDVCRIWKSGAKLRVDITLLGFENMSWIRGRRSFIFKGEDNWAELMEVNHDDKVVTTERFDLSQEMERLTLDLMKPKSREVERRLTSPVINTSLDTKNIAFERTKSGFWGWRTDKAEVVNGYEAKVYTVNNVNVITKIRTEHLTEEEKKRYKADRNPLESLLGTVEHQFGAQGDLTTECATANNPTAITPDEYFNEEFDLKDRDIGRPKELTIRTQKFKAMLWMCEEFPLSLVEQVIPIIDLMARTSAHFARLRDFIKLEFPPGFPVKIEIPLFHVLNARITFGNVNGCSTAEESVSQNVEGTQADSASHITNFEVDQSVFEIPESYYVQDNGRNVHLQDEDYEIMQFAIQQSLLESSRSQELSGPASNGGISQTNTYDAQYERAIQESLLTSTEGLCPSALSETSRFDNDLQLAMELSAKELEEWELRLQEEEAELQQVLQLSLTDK
Chain of UniProt Q9HBH1 (Q9HBH1 whole entry): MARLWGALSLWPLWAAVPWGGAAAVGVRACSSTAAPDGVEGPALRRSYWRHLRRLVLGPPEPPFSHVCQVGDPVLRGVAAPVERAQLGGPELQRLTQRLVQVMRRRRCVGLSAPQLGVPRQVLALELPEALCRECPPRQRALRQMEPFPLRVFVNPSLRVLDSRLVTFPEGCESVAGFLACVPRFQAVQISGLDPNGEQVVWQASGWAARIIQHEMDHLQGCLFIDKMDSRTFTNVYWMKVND
Chain of UniProt O14656 (O14656 whole entry): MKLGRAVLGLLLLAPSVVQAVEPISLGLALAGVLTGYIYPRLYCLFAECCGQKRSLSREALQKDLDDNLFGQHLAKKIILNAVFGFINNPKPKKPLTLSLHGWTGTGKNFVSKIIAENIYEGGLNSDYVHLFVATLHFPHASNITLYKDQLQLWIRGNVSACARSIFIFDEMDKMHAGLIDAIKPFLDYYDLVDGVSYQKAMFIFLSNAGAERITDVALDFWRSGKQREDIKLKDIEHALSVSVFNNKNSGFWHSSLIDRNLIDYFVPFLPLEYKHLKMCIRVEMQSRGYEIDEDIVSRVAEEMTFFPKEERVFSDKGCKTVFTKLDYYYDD
Chain of UniProt Q9H1Y0 (Q9H1Y0 whole entry): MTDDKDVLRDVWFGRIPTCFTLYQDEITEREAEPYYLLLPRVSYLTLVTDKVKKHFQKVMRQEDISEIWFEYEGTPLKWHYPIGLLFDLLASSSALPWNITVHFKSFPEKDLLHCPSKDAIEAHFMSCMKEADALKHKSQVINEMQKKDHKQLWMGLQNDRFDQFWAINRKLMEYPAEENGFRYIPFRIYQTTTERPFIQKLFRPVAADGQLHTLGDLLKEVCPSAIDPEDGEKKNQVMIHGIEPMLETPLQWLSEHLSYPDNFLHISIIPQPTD
Chain of UniProt Q9H814 (Q9H814 whole entry): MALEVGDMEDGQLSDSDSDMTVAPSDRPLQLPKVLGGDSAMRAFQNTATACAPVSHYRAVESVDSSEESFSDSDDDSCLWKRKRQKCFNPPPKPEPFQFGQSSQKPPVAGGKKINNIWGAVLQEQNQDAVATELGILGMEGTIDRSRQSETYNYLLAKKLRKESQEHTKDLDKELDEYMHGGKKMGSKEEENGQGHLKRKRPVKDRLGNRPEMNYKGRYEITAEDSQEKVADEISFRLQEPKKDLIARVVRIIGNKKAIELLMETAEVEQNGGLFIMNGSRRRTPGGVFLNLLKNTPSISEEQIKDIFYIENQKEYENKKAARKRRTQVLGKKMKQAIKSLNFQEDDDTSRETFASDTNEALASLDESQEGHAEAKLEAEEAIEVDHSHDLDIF
Chain of UniProt Q16890 (Q16890 whole entry): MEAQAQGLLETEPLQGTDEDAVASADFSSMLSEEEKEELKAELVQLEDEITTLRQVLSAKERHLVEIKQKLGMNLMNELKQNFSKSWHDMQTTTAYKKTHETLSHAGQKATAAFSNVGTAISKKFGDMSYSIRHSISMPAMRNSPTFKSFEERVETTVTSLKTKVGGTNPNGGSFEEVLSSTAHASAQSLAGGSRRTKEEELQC
Chain of UniProt Q9UKA9 (Q9UKA9 whole entry): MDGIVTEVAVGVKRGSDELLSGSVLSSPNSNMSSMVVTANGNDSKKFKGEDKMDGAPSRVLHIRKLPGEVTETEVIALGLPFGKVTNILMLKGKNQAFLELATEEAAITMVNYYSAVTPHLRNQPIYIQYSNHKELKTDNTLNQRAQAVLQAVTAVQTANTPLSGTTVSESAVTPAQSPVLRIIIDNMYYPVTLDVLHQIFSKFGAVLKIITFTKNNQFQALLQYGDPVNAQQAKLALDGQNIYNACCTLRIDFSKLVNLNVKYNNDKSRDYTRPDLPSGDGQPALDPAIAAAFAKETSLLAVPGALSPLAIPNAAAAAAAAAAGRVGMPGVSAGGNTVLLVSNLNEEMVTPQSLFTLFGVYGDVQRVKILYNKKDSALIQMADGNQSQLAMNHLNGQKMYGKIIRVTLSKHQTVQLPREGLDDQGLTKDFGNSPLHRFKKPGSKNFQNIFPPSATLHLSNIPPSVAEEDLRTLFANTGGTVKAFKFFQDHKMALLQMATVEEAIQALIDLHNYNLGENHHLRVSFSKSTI
Chain of UniProt P35237 (P35237 whole entry): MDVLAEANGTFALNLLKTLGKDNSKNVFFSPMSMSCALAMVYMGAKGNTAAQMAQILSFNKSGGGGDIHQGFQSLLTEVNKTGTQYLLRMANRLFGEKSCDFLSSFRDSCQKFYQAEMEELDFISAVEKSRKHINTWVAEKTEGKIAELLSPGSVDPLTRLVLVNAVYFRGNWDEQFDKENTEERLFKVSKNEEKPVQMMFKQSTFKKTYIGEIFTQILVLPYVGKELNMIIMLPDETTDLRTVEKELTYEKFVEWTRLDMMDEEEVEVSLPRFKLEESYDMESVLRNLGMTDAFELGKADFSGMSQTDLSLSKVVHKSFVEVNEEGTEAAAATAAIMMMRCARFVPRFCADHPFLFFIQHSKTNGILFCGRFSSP
Chain of UniProt Q9Y289 (Q9Y289 whole entry): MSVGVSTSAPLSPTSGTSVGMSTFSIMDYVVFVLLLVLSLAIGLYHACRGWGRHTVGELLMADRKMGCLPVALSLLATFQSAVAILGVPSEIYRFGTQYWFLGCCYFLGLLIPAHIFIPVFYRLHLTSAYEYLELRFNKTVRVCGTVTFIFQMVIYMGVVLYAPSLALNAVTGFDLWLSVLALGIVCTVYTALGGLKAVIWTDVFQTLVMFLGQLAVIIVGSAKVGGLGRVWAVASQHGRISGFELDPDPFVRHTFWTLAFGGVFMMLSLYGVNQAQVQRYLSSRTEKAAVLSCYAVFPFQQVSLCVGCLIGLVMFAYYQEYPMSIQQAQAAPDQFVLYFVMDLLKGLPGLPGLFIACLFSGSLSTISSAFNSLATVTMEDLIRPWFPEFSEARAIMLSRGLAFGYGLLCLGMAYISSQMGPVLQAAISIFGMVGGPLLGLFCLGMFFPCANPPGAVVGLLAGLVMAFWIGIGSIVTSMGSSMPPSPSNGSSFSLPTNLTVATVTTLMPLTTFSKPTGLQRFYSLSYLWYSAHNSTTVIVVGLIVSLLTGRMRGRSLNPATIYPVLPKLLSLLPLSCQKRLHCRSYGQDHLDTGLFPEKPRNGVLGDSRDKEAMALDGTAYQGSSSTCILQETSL
Chain of UniProt O94811 (O94811 whole entry): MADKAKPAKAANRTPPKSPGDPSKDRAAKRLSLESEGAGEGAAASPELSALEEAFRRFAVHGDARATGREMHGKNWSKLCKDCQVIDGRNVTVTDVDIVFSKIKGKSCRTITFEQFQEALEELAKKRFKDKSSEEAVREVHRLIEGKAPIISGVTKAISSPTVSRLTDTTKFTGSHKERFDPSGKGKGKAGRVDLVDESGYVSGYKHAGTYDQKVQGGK
Chain of UniProt Q9BTF0 (Q9BTF0 whole entry): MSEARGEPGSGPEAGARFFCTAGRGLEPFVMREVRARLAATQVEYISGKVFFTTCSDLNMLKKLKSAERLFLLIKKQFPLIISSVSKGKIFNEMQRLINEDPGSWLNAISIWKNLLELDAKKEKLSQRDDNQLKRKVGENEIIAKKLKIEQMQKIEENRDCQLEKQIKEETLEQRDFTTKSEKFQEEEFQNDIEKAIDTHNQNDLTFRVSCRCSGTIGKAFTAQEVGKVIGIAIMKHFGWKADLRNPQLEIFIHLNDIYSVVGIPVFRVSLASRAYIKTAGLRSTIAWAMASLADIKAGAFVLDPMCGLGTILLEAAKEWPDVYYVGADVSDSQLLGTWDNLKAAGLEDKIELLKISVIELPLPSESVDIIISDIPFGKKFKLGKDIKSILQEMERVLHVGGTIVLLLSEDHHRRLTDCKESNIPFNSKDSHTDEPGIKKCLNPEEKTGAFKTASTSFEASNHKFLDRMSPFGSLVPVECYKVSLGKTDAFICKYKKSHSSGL
Chain of UniProt Q14061 (Q14061 whole entry): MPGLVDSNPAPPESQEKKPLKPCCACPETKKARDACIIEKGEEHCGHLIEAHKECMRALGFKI

Target	thermal stability z-score (lipoamide; [1])	thermal stability z-score (lipoamide; arsenate co-treatment: none)	thermal stability z-score (potassium arsenate)
PSMD10 (UniProt O75832)	-0.817	0.0147	-0.327
STXBP2 (UniProt Q15833)	-0.105	0.167	0.225
ALDH3A2 (UniProt P51648)	1.63	1.32	0.0815
APOOL (UniProt Q6UXV4)	0.908	0.782	0.748
VPS39 (UniProt Q96JC1)	-0.937	-0.6	0.407
RNF14 (UniProt Q9UBS8)	-1.18	0.11	0.158
TBCD (UniProt Q9BTW9)	-0.558	-0.301	0.705
CAPN15 (UniProt O75808)	0.0525	0.0796	-0.24
TPD52L1 (UniProt Q16890)	0.471	0.545	0.237
RFT1 (UniProt Q96AA3)	-0.878	-0.767	-0.609
DPM1 (UniProt O60762)	0.673	0.429	0.383
SERPINB6 (UniProt P35237)	-0.206	-0.157	-1.01
CNNM4 (UniProt Q6P4Q7)	0.923	0.49	0.213
SLC5A6 (UniProt Q9Y289)	-0.586	-0.512	0.342
PSMA7 (UniProt O14818)	0.939	0.898	0.38
NLE1 (UniProt Q9NVX2)	0.481	0.2	-2.71
RAP1GDS1 (UniProt P52306)	0.161	-0.118	0.353
WRB (UniProt O00258)	-0.618	0.0706	-0.55
CENPE (UniProt Q02224)	0.141	0.088	0.013
PPP1CC (UniProt P36873)	0.0493	-0.463	-0.446
ATP1B3 (UniProt P54709)	-0.0616	-0.138	-0.13
OTUD7B (UniProt Q6GQQ9)	0.194	0.173	0.0572
RPL10A (UniProt P62906)	0.849	0.534	0.27
CDK13 (UniProt Q14004)	0.155	-0.0381	-0.0661
EXOC1 (UniProt Q9NV70)	-0.268	0.043	0.0191
VPS28 (UniProt Q9UK41)	0.513	0.681	0.492
TMEM263 (UniProt Q8WUH6)	0.283	-0.54	1.43
PTBP2 (UniProt Q9UKA9)	-0.138	-0.14	-0.161

Target	thermal stability z-score (lipoamide; [1])	thermal stability z-score (lipoamide; arsenate co-treatment: none)	thermal stability z-score (potassium arsenate)
TMEM161A (UniProt Q9NX61)	-0.0739	-0.0906	0.0752
TOP2B (UniProt Q02880)	0.61	0.212	-0.788
NMT1 (UniProt P30419)	0.237	-0.0177	1.15
MAN2B1 (UniProt O00754)	-1.18	-0.63	-0.312
MYOF (UniProt Q9NZM1)	-0.259	0.0805	0.0213
TOR1A (UniProt O14656)	-3.18	-3.08	0.174
PDF (UniProt Q9HBH1)	-0.494	-0.231	-0.495
AGAP1 (UniProt Q9UPQ3)	-1.59	-2.08	-1.91
PEX3 (UniProt P56589)	-0.415	-0.151	-0.285
SNCA (UniProt P37840)	0.553	0.198	-0.263
THUMPD2 (UniProt Q9BTF0)	-0.2	-0.425	0.0998
UBE4A (UniProt Q14139)	-0.217	-0.148	0.86
STEAP4 (UniProt Q687X5)	0.438	0.75	0.565
KDM4A (UniProt O75164)	-0.16	-0.11	-0.178
PHAX (UniProt Q9H814)	0.329	0.358	0.321
MARK1 (UniProt Q9P0L2)	-0.126	-0.153	0.249
TPPP (UniProt O94811)	-0.836	0.123	-0.479
USP16 (UniProt Q9Y5T5)	-0.544	-0.649	0.229
ANKRD13A (UniProt Q8IZ07)	0.0649	-0.0472	-0.0666
COX17 (UniProt Q14061)	-0.762	-2.24	-2.23
DUS2 (UniProt Q9NX74)	-0.517	0.0964	-0.452
SNRPGP15|SNRPG	1.63	0.677	0.296
ATG5 (UniProt Q9H1Y0)	-0.255	-0.342	-0.959
FAM98B (UniProt Q52LJ0)	0.052	-0.438	-1.01
PLA2G12A (UniProt Q9BZM1)	-0.0117	-0.134	-0.111
AKT1S1 (UniProt Q96B36)	-0.0956	-0.229	-0.504
AP3M1 (UniProt Q9Y2T2)	0.0419	0.0205	0.418
